# Assay results taken from patent publication US20150182472A1, “DENATURED LACTOGLOBULIN AND POLYPHENOL COASSEMBLIES” (TECHNION RESEARCH AND DEVELOPMENT FOUNDTION LTD., priority 2010, published 2015).
# Tests used:
# [1] = molecular target: T1, preheated β-Lg (75° C., 20 min) (Bos taurus, UniProt P02754); assay: Intrinsic protein fluorescence quenching: binding of EGCG to preheated β-Lg (Langmuir-based model and modified Stern-Volmer); parameters: species or system bovine; details: for KSVa ± S.E. (Stern-Volmer quenching constant) / fa ± S.E. (fraction of fluorophore-sites accessible): preheated 20 min 75° C.; for Ka ± S.E.: protein preheated 20 min 75° C. before adding EGCG
# T1 construct: Beta-lactoglobulin (β-Lg, 18.4 kDa, 162 amino acids) is the major whey protein in cow milk; purchased
# T1 sequence (P02754 17-178): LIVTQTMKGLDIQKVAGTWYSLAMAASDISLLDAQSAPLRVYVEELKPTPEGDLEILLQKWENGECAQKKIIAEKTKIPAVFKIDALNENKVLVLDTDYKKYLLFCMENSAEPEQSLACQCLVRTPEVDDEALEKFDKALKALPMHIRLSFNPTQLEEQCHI
# Protocol: (§1) It is based on exciting at 280 nm the Trp and Tyr residues of bovine β-Lg (bovine β-Lg contains two Trp residues and four Tyr residues) and at 295 nm where only Trp residues are excited though the quantum yield of the Trp itself is smaller than that at 280 nm.
# (§2) All fluorescence measurements were performed at room temperature. β-Lg solution (2.09 μM in 1.9 ml of 30 mM PBS, pH 6.86) was heated at 75° C. for 20 minutes, or kept at room temperature. The co-assembly preparation process was done as described above. All measurements were performed after equilibrating the solutions at room temperature for 3 hours. EGCG solutions were 0-400 μM in 0.1 ml of 30 mM PBS, pH 2.44. All samples were prepared in triplicates. The pH of the final solutions was 6.86. β-Lg fluorescence was measured at constant protein concentration of 2 μM and EGCG concentrations of 0-20 μM using a Fluorolog 3-22 spectrofluorometer (Horiba, Jobin Yvon, Longjumeau, France) at a Right-Angle mode. Emission spectra were recorded from 290 to 510 nm with an excitation wavelength of 280 nm, and from 305 to 520 nm with an excitation wavelength of 295 nm, employing 5 nm slit widths. The statistical analysis and non-linear curve fitting were performed using Origin 8 (OriginLab, Northampton, USA).
# (§3) Trp61 is reportedly quenched in the native state due to proximity to the Cys66-Cys160 disulfide bond, while Trp 19 is located in a non-polar environment within the cavity of the β-barrel structure, and is responsible for most of the Trp (and the protein) fluorescence. A small shift in the maximal emission wavelength of the protein occurred upon heating and was more clearly observed at the excitation wavelength attributed to Trp alone (295 nm). As only small shifts in the maximal wavelength occurred, all analyses were performed at emission of 343 nm for both excitation wavelengths. When studying the binding of EGCG to β-LG by fluorescence, it is important to keep in mind that EGCG, and not only β-LG, absorbs energy, both at the protein's excitation and, to a lower extent, at the emission wavelengths. Consequently, an inner filtering effect occurs, which intensifies with increasing EGCG concentration, reducing the amount of available energy to excite the protein' s fluorescent groups and absorbing some of the emitted energy too. To overcome this effect, the emission at 343 nm was corrected according to Beer-Lambert's law, using equation 1:
# (§4) F=Fu·10^QL(ε^λex^+ε^λem^) (Equation 1)
# (§5) where Fu is the measured, uncorrected emission intensity, ελex and ελem—the molar extinction coefficients of EGCG at the excitation and emission wavelengths respectively (measured spectrophotometrically, in the same buffer), Q is the quencher (EGCG) concentration in the cell and L is the path length assumed to be 0.5 cm each for the excitation and emission.
# (§6) The analysis for determination of the binding constants was performed using a Langmuir-based model, assuming one affinity-class of binding sites, as described by equation (2): […]
# (§7) where F and F0 are the fluorescence intensities of the protein solution in the presence and in the absence of the ligand, respectively; F∞ is the fluorescence when the protein is saturated with the ligand and L0 is the total ligand concentration. The decrease in the fluorescence in the presence of different EGCG concentrations was recorded, and the association constant (Ka) as well as the value for maximum fluorescence difference (ΔFmax=F0−F∞) were calculated by non-linear curve fitting to equation 2 (FIG. 5). The parameters for the fitting were based on the quenching of Tyr and Trp fluorescence at pH 6.87, for β-Lg concentration of 2 μM.
# (§8) Fluorescence quenching is often described by the Stern-Volmer equation (3): […]
# (§9) where F0 and F are the fluorescence intensities before and after the addition of the quencher, respectively, KSV is the Stern-Volmer quenching constant and [Q] is the concentration of the quencher. […]
# native β-Lg = molecular target: T2, native β-Lg (Bos taurus, UniProt P02754); assay: Intrinsic protein fluorescence quenching: binding of EGCG to native β-Lg (Langmuir-based model and modified Stern-Volmer); parameters: species or system bovine; details: without preheating (RT)
# T2 construct: Beta-lactoglobulin (β-Lg, 18.4 kDa, 162 amino acids) is the major whey protein in cow milk; purchased
# T2 sequence (P02754 17-178): T1 sequence (P02754 17-178)
# Protocol: as §1, §2, §3, §4, §5, §6, §7, §8, §9
# [2] = Protection against EGCG oxidation: absorbance at 425 nm over time; format: physicochemical
# Protocol: Aliquots of 2.5 ml EGCG solution were transferred to 1 cm path length spectrophotometer cuvettes and covered with parafilm to prevent evaporation. […] Solutions of 0.52 mM (0.95%) protein at a 2:1 molar ratio (EGCG:protein) and pH 6.85 were compared to pure EGCG solutions. The protein was preheated at 2 temperatures (75° C. and 85° C.) for 20 minutes or kept at room temperature, to compare the protection provided by the partially denatured protein to that of the native protein. The reason for testing these two temperatures was that according to the literature, at about this pH, between 65-75° C. small proteins oligomers are formed, while between 75-85° C. some aggregation of the oligomers occurs. […] Appropriate controls of β-Lg without EGCG and EGCG without β-Lg at the respective concentrations and pH were performed. After preparation, the samples were placed in 1 cm path length spectrophotometer cuvettes and covered with parafilm. […]
# [3] = sodium phosphate buffer (pH 7.4); 3 hr; cited from earlier work
# [4] = Loading efficiency and loading ratio of EGCG by centrifugal ultrafiltration; format: physicochemical; details: both β-Lg concentrations (0.5% and 1% w/w)
# Protocol: The loading efficiency (the percentage of encapsulated substance out of total material added to the composition) and loading ratio (the ratio between the encapsulated substance and the encapsulation matrix) of EGCG was determined. β-Lg-EGCG nanoparticles solutions, of 2:1 and 8:1 EGCG: β-Lg molar ratios, were prepared at 1% w/w and 0.5% w/w protein solution. The entrapped EGCG in β-Lg nanoparticles was separated from the free EGCG by centrifugal ultrafiltration as described above. The molar loading ratio and the loading efficiency are presented on Table 4.
# [5] = Particle size distribution by dynamic light scattering (DLS); format: physicochemical
# Protocol: Dynamic light scattering was used to evaluate size distribution of the nanocomplexes formed, and that of the pure protein. To produce particles containing the EGCG:β-Lg molar ratios 2:1, 4:1, 6:1, 8:1 and 10:1, two experiments were performed: • (1) β-Lg solution (0.54 mM, in 0.9 ml of 30 mM PBS, pH 7) was heated to 75° C. for 20 minutes, and then EGCG solutions (1.96 mM-10.25 mM, in 0.48 ml of 5 mM PBS, pH 2.5) were added. […] The final EGCG concentrations were 0.87 mM-4.36 mM (0.04%-0.2%), the final β-Lg concentration was 0.43 mM (0.8%) and the pH of the final solution was 6.88.
# After polyphenol addition, samples were vortexed for 20 seconds and allowed to cool to room temperature before measurement.
# Particle size distribution was studied by a dynamic light scattering (DLS) analyzer (NICOMP™ 380, Particle Sizing Systems Inc., Santa Barbara, Calif., USA) equipped with an Avalanche Photo Diode (APD) detector, used at a fixed angle of 90°. The 90 mW laser wavelength was 658 nm. Mono- bi- or tri-modal distributions were calculated from the scattered light intensity fluctuations, by cumulants Nicomp™ analysis of the auto correlation function (see supplementary information in (Shapira, Assaraf, & Livney, 2009) for a more complete method description). The size range for the Nicomp distribution analysis was set to 1-1,000 nm. Measurements were made in duplicates at 25° C. Table 3 and FIG. 7 show an increase in particle size with increasing EGCG concentration indicating the formation of preheated complexes/nanoparticles (75° C., 20 min before EGCG addition). The molar ratios of β-Lg to EGCG presented in FIG. 7 are: 1:0 (straight line), 1:2 (dotted line), 1:4 (broken line), 1:6 (bold line/dot/line; ? ), 1:8 (fine line/dot/line; ? ) and 1:10 (line/2 dots; ? ).
# As detailed above, EGCG-β-Lg nanoparticles at neutral pH are smaller than 50 nm. In order to determine whether the addition of EGCG to the preheated β-Lg causes, in addition to a slight increase in size, a change in colloidal stability, different EGCG concentration solutions were added to the pre-heated β-Lg to create nano-complexes comprised of β-Lg:EGCG at molar ratios in the range of 1:0 to 1:8, while the β-Lg concentration remains constant at a neutral pH (6.8).
# The size distribution of the nano-particles solution seemed to consist of two fractions. The first fraction included the small nano-particles in the range of 2-3 nm in diameter and the second fraction included nano-particles of about 15 nm. Since the size of the protein molecule is around 2 nm, it would be reasonable to assume that the smaller-size fraction represents unbound protein molecules or protein molecules with a few bound EGCG molecules, while the larger-size fraction represents complexes comprising several protein molecules, and probably also several EGCG molecules. […] It was important to see whether the increase in the fraction of the larger sized complexes causes a decrease in colloidal stability. Therefore the predicted stability of the same complexes was studied by measuring the electrophoretic mobility (EM) of the nanocomplexes (FIG. 9B). For uniform and moderate electric fields, a linear relationship usually exists between the steady-state electrophoretic mobility and the zeta potential value (Delgado, et al. (2007) Journal of Colloid and Interface Science, Vol. 309, pages 194-224). The zeta potential is calculated according to the measured electrophoretic mobility using several theoretical models available. The choice of a suitable model is carried out according to the ratio of the particle radius (a) and the Debye length (κ−1) (i.e. a/κ−1=κ*a) which characterize the studied composition. […] In the composition of the invention for the smaller particles (of ˜2-3 nm) the κ*a was approximately 1.5. For the larger complexes of about 15 nm, the κ*a value was approximately 7.5. […]
# [6] = β-Lg 0.35 mM (0.65% (w/w) pH 6.56)
# [7] = β-Lg 0.43 mM (0.8% (w/w) pH 6.56)
compound,measurement,setting,value
"O=C(O[C@@H]1Cc2c(O)cc(O)cc2O[C@@H]1c1cc(O)c(O)c(O)c1)c1cc(O)c(O)c(O)c1 [EGCG, (−)-Epigallocatechin-3-gallate]",KSVa ± S.E. (Stern-Volmer quenching constant),[1]; excitation 280 nm,3.31 ± 0.7 10^5 M^−1
same,fa ± S.E. (fraction of fluorophore-sites accessible),[1]; excitation 280 nm,0.32 ± 0.05
same,Ka ± S.E.,[1]; excitation 280 nm,3.7 ± 0.67 10^5 M^−1
same,KSVa ± S.E. (Stern-Volmer quenching constant),[1]; excitation 295 nm,3.07 ± 1.05 10^5 M^−1
same,fa ± S.E. (fraction of fluorophore-sites accessible),[1]; excitation 295 nm,0.25 ± 0.07
same,Ka ± S.E.,[1]; excitation 295 nm,3.3 ± 1.07 10^5 M^−1
same,"Ka (association constant, Langmuir-based model fit)","[1]; pH 6.87, β-Lg 2 μM, FIG. 5 fit",370000 ± 67000 M⁻¹
same,ΔFmax*10^6 (maximum fluorescence difference),"[1]; pH 6.87, β-Lg 2 μM, FIG. 5 fit",3.31±0.17
same,KSVa ± S.E. (Stern-Volmer quenching constant),native β-Lg; excitation 280 nm,1.4 ± 0.7 10^5 M^−1
same,Ka ± S.E.,native β-Lg; excitation 280 nm,1.05 ± 0.34 10^5 M^−1
same,fa ± S.E. (fraction of fluorophore-sites accessible),native β-Lg; excitation 280 nm,0.16 ± 0.07
same,KSVa ± S.E. (Stern-Volmer quenching constant),native β-Lg; excitation 295 nm,1.4 ± 0.7 10^5 M^−1
same,Ka ± S.E.,native β-Lg; excitation 295 nm,1.9 ± 0.6 10^5 M^−1
same,fa ± S.E. (fraction of fluorophore-sites accessible),native β-Lg; excitation 295 nm,0.15 ± 0.06
same,increase in the 425 nm absorbance with time,[2]; EGCG solution (0.05%) in pH 2.5 PBS,no increase
same,degradation rate (absorbance at 425 nm),"[2]; PBS pH 6.8, EGCG 0.05%-0.5%",degradation rate increased with rising EGCG concentration
same,EGCG degradation rate (increase in absorbance at 425 nm),"[2]; eight days at room temperature, EGCG 1.09 mM (0.05%), β-Lg 0.52 mM, pH 6.85",fastest increase in the absorbance
same,EGCG lost,[3],80%
Cn1c(=O)c2c(ncn2C)n(C)c1=O [caffeine],binding or entrapment in β-Lg,[4],did not show any binding or entrapment
"1:0: preheated β-lactoglobulin without EGCG (major whey protein in cow milk, 18.4 kDa)",size,[5]; rough summary of Table 3,around 2 nm
same,"d, Peak I (β-Lg)",[5]; [6],4.8 nm
same,"fvw, Peak I (β-Lg)",[5]; [6],99.6%
same,"d, Peak I (β-Lg)",[5]; [7],1.4 nm
same,"d, Peak II (β-Lg-EGCG)",[5]; [7],20.2 nm
same,"fvw, Peak I (β-Lg)",[5]; [7],99.8%
same,"fvw, Peak II (β-Lg-EGCG)",[5]; [7],0.2%
